According to PubChem BioAssay (NCI):
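Five compound concentrations were applied to cells in 96-well plates for 48 hours; endpoints were derived by simple linear interpolation of the resulting dose-response curve. TGI: concentration producing complete growth inhibition.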

Tests used:
Test in all cases: growth of human tumour cells (NCI), 48 h
A498 renal = system: A498 renal
COLO 205 colon = system: COLO 205 colon
786-0 renal = system: 786-0 renal
SF-268 CNS = system: SF-268 CNS
OVCAR-5 ovarian = system: OVCAR-5 ovarian
A549 NSCLC = system: A549 NSCLC
ACHN renal = system: ACHN renal
SNB-19 CNS = system: SNB-19 CNS
NCI-H522 lung = system: NCI-H522 lung
SW-620 colon = system: SW-620 colon
NCI-H226 lung = system: NCI-H226 lung
SK-MEL-2 melanoma = system: SK-MEL-2 melanoma
SR leukemia = system: SR leukemia
CCRF-CEM leukemia = system: CCRF-CEM leukemia
HT29 colon = system: HT29 colon
M19-MEL melanoma = system: M19-MEL melanoma
KM12 colon = system: KM12 colon
OVCAR-3 ovarian = system: OVCAR-3 ovarian
U251 CNS = system: U251 CNS
UO-31 renal = system: UO-31 renal
TK-10 renal = system: TK-10 renal
XF 498 CNS = system: XF 498 CNS
MOLT-4 leukemia = system: MOLT-4 leukemia
RPMI-8226 leukemia = system: RPMI-8226 leukemia
KM20L2 colon = system: KM20L2 colon
SF-539 CNS = system: SF-539 CNS
OVCAR-4 ovarian = system: OVCAR-4 ovarian
CAKI-1 renal = system: CAKI-1 renal
NCI-H460 lung = system: NCI-H460 lung
HCC-2998 colon = system: HCC-2998 colon
LOX IMVI melanoma = system: LOX IMVI melanoma
SK-MEL-5 melanoma = system: SK-MEL-5 melanoma
EKVX NSCLC = system: EKVX NSCLC
SK-MEL-28 melanoma = system: SK-MEL-28 melanoma
IGROV1 ovarian = system: IGROV1 ovarian
MALME-3M melanoma = system: MALME-3M melanoma
HL-60(TB) leukemia = system: HL-60(TB) leukemia
DLD-1 colon = system: DLD-1 colon
UACC-62 melanoma = system: UACC-62 melanoma
SK-OV-3 ovarian = system: SK-OV-3 ovarian
SF-295 CNS = system: SF-295 CNS
DMS 273 small cell lung = system: DMS 273 small cell lung
K-562 leukemia = system: K-562 leukemia
LXFL 529 NSCLC = system: LXFL 529 NSCLC
SN12C renal = system: SN12C renal
RXF 393 renal = system: RXF 393 renal
M14 melanoma = system: M14 melanoma
OVCAR-8 ovarian = system: OVCAR-8 ovarian
HCT-15 colon = system: HCT-15 colon
UACC-257 melanoma = system: UACC-257 melanoma
SNB-75 CNS = system: SNB-75 CNS
HCT-116 colon = system: HCT-116 colon
HOP-62 NSCLC = system: HOP-62 NSCLC
HOP-18 NSCLC = system: HOP-18 NSCLC
DMS 114 small cell lung = system: DMS 114 small cell lung
SNB-78 CNS = system: SNB-78 CNS
NCI-H23 lung = system: NCI-H23 lung
HOP-92 NSCLC = system: HOP-92 NSCLC

COC(=O)C(Cc1nc2ccc(Cl)cc2[nH]c1=O)/C(=N/O)C(=O)Nc1cccc(Cl)c1C (centres undefined)
TGI (A498 renal): > 100 µM | TGI (COLO 205 colon): > 100 µM | TGI (786-0 renal): > 100 µM | TGI (SF-268 CNS): > 100 µM | TGI (OVCAR-5 ovarian): > 100 µM | TGI (A549 NSCLC): > 100 µM | TGI (ACHN renal): > 100 µM | TGI (SNB-19 CNS): > 100 µM | TGI (NCI-H522 lung): > 100 µM | TGI (SW-620 colon): > 100 µM | TGI (NCI-H226 lung): > 100 µM | TGI (SK-MEL-2 melanoma): > 100 µM | TGI (SR leukemia): > 100 µM | TGI (CCRF-CEM leukemia): > 100 µM | TGI (HT29 colon): > 100 µM | TGI (M19-MEL melanoma): > 100 µM | TGI (KM12 colon): > 100 µM | TGI (OVCAR-3 ovarian): > 100 µM | TGI (U251 CNS): > 100 µM | TGI (UO-31 renal): > 100 µM | TGI (TK-10 renal): > 100 µM | TGI (XF 498 CNS): > 100 µM | TGI (MOLT-4 leukemia): > 100 µM | TGI (RPMI-8226 leukemia): > 100 µM | TGI (KM20L2 colon): > 100 µM | TGI (SF-539 CNS): > 100 µM | TGI (OVCAR-4 ovarian): > 100 µM | TGI (CAKI-1 renal): > 100 µM | TGI (NCI-H460 lung): > 100 µM | TGI (HCC-2998 colon): > 100 µM | TGI (LOX IMVI melanoma): > 100 µM | TGI (SK-MEL-5 melanoma): > 100 µM | TGI (EKVX NSCLC): > 100 µM | TGI (SK-MEL-28 melanoma): > 100 µM | TGI (IGROV1 ovarian): > 100 µM | TGI (MALME-3M melanoma): > 100 µM | TGI (HL-60(TB) leukemia): > 100 µM | TGI (DLD-1 colon): > 100 µM | TGI (UACC-62 melanoma): > 100 µM | TGI (SK-OV-3 ovarian): > 100 µM | TGI (SF-295 CNS): > 100 µM | TGI (DMS 273 small cell lung): > 100 µM | TGI (K-562 leukemia): > 100 µM | TGI (LXFL 529 NSCLC): > 100 µM | TGI (SN12C renal): > 100 µM | TGI (RXF 393 renal): > 100 µM | TGI (M14 melanoma): > 100 µM | TGI (OVCAR-8 ovarian): > 100 µM | TGI (HCT-15 colon): > 100 µM | TGI (UACC-257 melanoma): > 100 µM | TGI (SNB-75 CNS): > 100 µM | TGI (HCT-116 colon): > 100 µM | TGI (HOP-62 NSCLC): > 100 µM | TGI (HOP-18 NSCLC): > 100 µM | TGI (DMS 114 small cell lung): > 100 µM | TGI (SNB-78 CNS): > 100 µM | TGI (NCI-H23 lung): > 100 µM

CCOC(=O)NC(=O)c1cn(-c2ccc(CCOC(=O)NCCCCCCNC(=O)OCCc3ccc(-n4c(=O)[nH]cc(C(=O)NC(=O)OCC)c4=O)cc3)cc2)c(=O)[nH]c1=O
TGI (A498 renal): > 100 µM | TGI (COLO 205 colon): > 100 µM | TGI (786-0 renal): > 100 µM | TGI (SF-268 CNS): > 84.8 µM | TGI (OVCAR-5 ovarian): > 100 µM | TGI (A549 NSCLC): > 100 µM | TGI (ACHN renal): > 92.7 µM | TGI (SNB-19 CNS): 51.4 µM | TGI (NCI-H522 lung): 68.6 µM | TGI (SW-620 colon): > 100 µM | TGI (SK-MEL-2 melanoma): > 100 µM | TGI (SR leukemia): > 100 µM | TGI (CCRF-CEM leukemia): > 100 µM | TGI (HT29 colon): > 100 µM | TGI (M19-MEL melanoma): > 94.8 µM | TGI (KM12 colon): > 100 µM | TGI (OVCAR-3 ovarian): > 100 µM | TGI (U251 CNS): > 74.9 µM | TGI (HOP-92 NSCLC): > 100 µM | TGI (UO-31 renal): > 93.9 µM | TGI (TK-10 renal): 97.5 µM | TGI (XF 498 CNS): > 48.9 µM | TGI (MOLT-4 leukemia): > 100 µM | TGI (RPMI-8226 leukemia): > 100 µM | TGI (KM20L2 colon): > 100 µM | TGI (SF-539 CNS): 54.5 µM | TGI (OVCAR-4 ovarian): > 100 µM | TGI (CAKI-1 renal): > 100 µM | TGI (NCI-H460 lung): > 76.8 µM | TGI (HCC-2998 colon): > 100 µM | TGI (LOX IMVI melanoma): > 100 µM | TGI (SK-MEL-5 melanoma): > 100 µM | TGI (EKVX NSCLC): > 100 µM | TGI (SK-MEL-28 melanoma): > 100 µM | TGI (IGROV1 ovarian): > 100 µM | TGI (MALME-3M melanoma): > 91.9 µM | TGI (HL-60(TB) leukemia): > 100 µM | TGI (DLD-1 colon): > 100 µM | TGI (UACC-62 melanoma): 60.6 µM | TGI (SK-OV-3 ovarian): > 89.8 µM | TGI (SF-295 CNS): > 82.4 µM | TGI (DMS 273 small cell lung): > 100 µM | TGI (K-562 leukemia): > 100 µM | TGI (LXFL 529 NSCLC): 69.7 µM | TGI (SN12C renal): > 100 µM | TGI (RXF 393 renal): > 100 µM | TGI (M14 melanoma): > 100 µM | TGI (OVCAR-8 ovarian): > 100 µM | TGI (HCT-15 colon): > 100 µM | TGI (UACC-257 melanoma): > 100 µM | TGI (SNB-75 CNS): 67.3 µM | TGI (HCT-116 colon): > 100 µM | TGI (HOP-62 NSCLC): 72 µM | TGI (HOP-18 NSCLC): > 100 µM | TGI (DMS 114 small cell lung): > 100 µM | TGI (SNB-78 CNS): 98.8 µM | TGI (NCI-H23 lung): > 100 µM
